# According to patent publication US10858362B2, “Imidazopyrazinones as PDE1 inhibitors” (H. Lundbeck A/S, priority 2015, dated 2020):
# Tests used:
# Type in all cases: biochemical
# [1] = target: PDE9 (Homo sapiens (Human), UniProt O76083); assay: PDE9 inhibition assay
# Procedure: A PDE9 assay may for example, be performed as follows: The assay is performed in 60 μL samples containing a fixed amount of the relevant PDE enzyme (sufficient to convert 20-25% of the cyclic nucleotide substrate), a buffer (50 mM HEPES7.6; 10 mM MgCl2; 0.02% Tween20), 0.1 mg/ml BSA, 225 pCi of ^3H-labelled cyclic nucleotide substrate, tritium labeled cAMP to a final concentration of 5 nM and varying amounts of inhibitors. Reactions are initiated by addition of the cyclic nucleotide substrate, and reactions are allowed to proceed for one hr at room temperature before being terminated through mixing with 15 μL 8 mg/mL yttrium silicate SPA beads (Amersham). The beads are allowed to settle for one hr in the dark before the plates are counted in a Wallac 1450 Microbeta counter.
# In the context of the present invention the assay was performed in 60 μL assay buffer (50 mM HEPES pH 7.6; 10 mM MgCl2; 0.02% Tween20) containing enough PDE9 to convert 20-25% of 10 nM ^3H-cAMP and varying amounts of inhibitors. Following a 1 hr incubation the reactions were terminated by addition of 15 μL 8 mg/mL yttrium silicate SPA beads (Amersham). The beads were allowed to settle for one hr in the dark before the plates were counted in a Wallac 1450 Microbeta counter.
# [2] = target: PDE1B (Homo sapiens (Human), UniProt Q01064); assay: PDE1 inhibition assay, PDE1B; details: for IC50: 15 nM tritium labelled cAMP; for inhibition at 1 µM: read-out: PDE1B, % inhibition (at 1 μM)
# Procedure: (§1) Reactions were initiated by addition of the cyclic nucleotide substrate, and reactions were allowed to proceed for 1 h at room temperature before being terminated through mixing with 20 μL (0.2 mg) yttrium silicate SPA beads (PerkinElmer). The beads were allowed to settle for 1 h in the dark before the plates were counted in a Wallac 1450 Microbeta counter.
# [3] = target: PDE1A (Homo sapiens (Human), UniProt P54750); assay: PDE1 inhibition assay, PDE1A; details: for IC50: 15 nM tritium labelled cAMP; for inhibition at 1 µM: read-out: PDE1A, % inhibition (at 1 μM); for percent inhibition of PDE1A at 2 µM: % sign not given
# Procedure: Reactions were initiated by addition of the cyclic nucleotide substrate, and reactions were allowed to proceed for 1 h at room temperature before being terminated through mixing with 20 μL (0.2 mg) yttrium silicate SPA beads (PerkinElmer).
# [4] = target: PDE1C (Homo sapiens (Human), UniProt Q14123); assay: PDE1 inhibition assay, PDE1C; details: for IC50: 15 nM tritium labelled cAMP; for inhibition at 1 µM: read-out: PDE1C, % inhibition (at 1 μM)
# Procedure: as §1
# Sequence of PDE1C (Q14123 whole entry): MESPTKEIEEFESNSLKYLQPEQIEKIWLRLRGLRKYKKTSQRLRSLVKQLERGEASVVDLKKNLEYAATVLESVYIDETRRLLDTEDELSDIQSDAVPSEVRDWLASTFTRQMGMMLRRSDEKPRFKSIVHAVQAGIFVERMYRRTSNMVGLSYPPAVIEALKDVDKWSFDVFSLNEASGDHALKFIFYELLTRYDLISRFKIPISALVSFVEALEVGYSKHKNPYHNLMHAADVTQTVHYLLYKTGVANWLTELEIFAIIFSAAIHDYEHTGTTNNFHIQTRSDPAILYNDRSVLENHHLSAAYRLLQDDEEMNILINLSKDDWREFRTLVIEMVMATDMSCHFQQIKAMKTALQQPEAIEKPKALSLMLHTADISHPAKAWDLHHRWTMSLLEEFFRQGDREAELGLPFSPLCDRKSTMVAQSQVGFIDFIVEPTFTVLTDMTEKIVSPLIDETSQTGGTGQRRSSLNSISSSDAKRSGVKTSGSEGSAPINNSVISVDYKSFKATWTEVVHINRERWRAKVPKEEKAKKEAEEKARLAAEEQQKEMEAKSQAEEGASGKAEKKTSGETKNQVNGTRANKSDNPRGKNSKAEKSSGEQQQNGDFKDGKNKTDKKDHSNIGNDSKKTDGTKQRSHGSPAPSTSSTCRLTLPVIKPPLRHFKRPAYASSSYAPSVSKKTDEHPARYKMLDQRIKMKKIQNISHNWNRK
# Sequence of PDE1B (Q01064 whole entry): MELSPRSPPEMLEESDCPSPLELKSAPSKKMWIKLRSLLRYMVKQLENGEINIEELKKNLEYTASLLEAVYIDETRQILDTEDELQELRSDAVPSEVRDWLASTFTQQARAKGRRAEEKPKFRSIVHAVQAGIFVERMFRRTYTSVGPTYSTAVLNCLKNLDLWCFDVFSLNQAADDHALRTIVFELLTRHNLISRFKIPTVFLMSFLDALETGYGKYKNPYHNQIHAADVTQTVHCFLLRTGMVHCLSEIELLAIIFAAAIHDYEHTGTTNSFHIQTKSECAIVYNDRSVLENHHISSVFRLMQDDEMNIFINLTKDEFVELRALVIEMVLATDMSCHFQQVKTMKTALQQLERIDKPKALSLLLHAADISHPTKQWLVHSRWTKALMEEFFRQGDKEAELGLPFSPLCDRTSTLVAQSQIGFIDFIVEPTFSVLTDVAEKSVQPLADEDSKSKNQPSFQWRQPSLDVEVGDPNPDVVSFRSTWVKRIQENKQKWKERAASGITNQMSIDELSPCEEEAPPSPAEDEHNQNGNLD
# Sequence of PDE9 (O76083 whole entry): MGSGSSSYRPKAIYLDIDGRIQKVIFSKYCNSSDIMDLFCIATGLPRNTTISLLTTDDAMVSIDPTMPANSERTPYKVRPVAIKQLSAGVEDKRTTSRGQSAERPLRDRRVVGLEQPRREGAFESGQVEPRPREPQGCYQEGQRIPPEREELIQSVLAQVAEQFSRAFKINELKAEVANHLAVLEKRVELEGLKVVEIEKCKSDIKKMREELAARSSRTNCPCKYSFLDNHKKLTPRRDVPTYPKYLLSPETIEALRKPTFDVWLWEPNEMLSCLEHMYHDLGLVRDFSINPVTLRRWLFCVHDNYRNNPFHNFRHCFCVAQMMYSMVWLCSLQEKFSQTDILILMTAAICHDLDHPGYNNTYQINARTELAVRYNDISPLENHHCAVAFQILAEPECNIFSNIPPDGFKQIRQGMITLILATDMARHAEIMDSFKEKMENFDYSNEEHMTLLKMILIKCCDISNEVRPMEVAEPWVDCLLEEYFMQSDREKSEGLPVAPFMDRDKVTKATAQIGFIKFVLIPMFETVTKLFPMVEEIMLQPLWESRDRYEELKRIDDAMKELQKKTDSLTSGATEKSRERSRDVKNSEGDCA
# Sequence of PDE1A (P54750 whole entry): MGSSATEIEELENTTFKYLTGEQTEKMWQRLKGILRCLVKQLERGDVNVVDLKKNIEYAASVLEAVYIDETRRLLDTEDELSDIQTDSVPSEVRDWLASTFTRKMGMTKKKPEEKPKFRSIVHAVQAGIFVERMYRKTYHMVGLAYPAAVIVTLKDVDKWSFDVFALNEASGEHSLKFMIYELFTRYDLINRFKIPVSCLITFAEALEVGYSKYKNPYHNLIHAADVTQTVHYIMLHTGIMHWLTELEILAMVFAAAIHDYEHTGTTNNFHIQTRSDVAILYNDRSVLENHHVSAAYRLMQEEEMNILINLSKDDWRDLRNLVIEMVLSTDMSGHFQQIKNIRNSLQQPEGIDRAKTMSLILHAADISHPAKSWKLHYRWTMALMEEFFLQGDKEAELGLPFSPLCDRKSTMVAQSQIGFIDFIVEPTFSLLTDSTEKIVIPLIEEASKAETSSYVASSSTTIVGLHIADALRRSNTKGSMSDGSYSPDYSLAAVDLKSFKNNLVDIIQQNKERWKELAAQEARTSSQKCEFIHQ
inhibition at 10 µM [1] [%],IC50 [2] [nM],IC50 [3] [nM],IC50 [4] [nM],inhibition at 1 µM [3] [%],inhibition at 1 µM [4] [%],inhibition at 1 µM [2] [%],percent inhibition of PDE1A at 2 µM [3],"inhibition at 10 µM ([3]; read-out: PDE1A, % inhibition (at 10 μM)) [%]","inhibition at 10 µM ([4]; read-out: PDE1C, % inhibition (at 10 μM)) [%]",SMILES
-42,57,63,9,,,,,,,"Cc1cccc(Cn2c(C)cn3c(C4CCOCC4)ncc3c2=O)c1 [Example 25, 6-Methyl-7-(3-methylbenzyl)-3-(tetrahydro-2H-pyran-4-yl)imidazo[1,5-a]pyrazin-8(7H)-one]"
-2,218,234,47,,,,,,,"Cc1cn2c(C3(C)CCOCC3)ncc2c(=O)n1Cc1cccc(F)c1 [Example 26, 7-(3-fluorobenzyl)-6-methyl-3-(4-methyltetrahydro-2H-pyran-4-yl)imidazo[1,5-a]pyrazin-8(7H)-one]"
5,699,603,103,,,,,,,"Cc1cn2c(C3(C#N)CCOCC3)ncc2c(=O)n1Cc1cccc(F)c1 [Example 27, 4-(7-(3-fluorobenzyl)-6-methyl-8-oxo-7,8-dihydroimidazo[1,5-a]pyrazin-3-yl)tetrahydro-2H-pyran-4-carbonitrile]"
13,737,663,72,,,,,,,"COC1(c2ncc3c(=O)n(Cc4cccc(F)c4)c(C)cn23)CCOCC1 [Example 28, 7-(3-fluorobenzyl)-3-(4-methoxytetrahydro-2H-pyran-4-yl)-6-methylimidazo[1,5-a]pyrazin-8(7H)-one]"
16,249,493,50,,,,,,,"Cc1cn2c(C3(F)CCOCC3)ncc2c(=O)n1Cc1cccc(F)c1 [Example 29, 7-(3-fluorobenzyl)-3-(4-fluorotetrahydro-2H-pyran-4-yl)-6-methylimidazo[1,5-a]pyrazin-8(7H)-one]"
-2,52,94,7,,,,,,,"Cc1cn2c(C3(C)CC3)ncc2c(=O)n1Cc1cccc(F)c1 [Example 33, 7-(3-fluorobenzyl)-6-methyl-3-(1-methylcyclopropyl)imidazo[1,5-a]pyrazin-8(7H)-one]"
0,359,331,93,,,,,,,"Cc1cn2c(C3CC3(F)F)ncc2c(=O)n1Cc1cccc(F)c1 (stereo not shown) [Example 34, 3-(2,2-difluorocyclopropyl)-7-(3-fluorobenzyl)-6-methylimidazo[1,5-a]pyrazin-8(7H)-one]"
23,118,413,364,,,,,,,"Cc1cn2c(C3CCOCC3)ncc2c(=O)n1Cc1ccc(OC2CC2)cc1 [Example 39, 7-(4-cyclopropoxybenzyl)-6-methyl-3-(tetrahydro-2H-pyran-4-yl)imidazo[1,5-a]pyrazin-8(7H)-one]"
-25,27,73,52,,,,,,,"Cc1cn2c(C3CCOCC3)ncc2c(=O)n1Cc1ccc(OC(F)F)cc1 [Example 40, 7-(4-(difluoromethoxy)benzyl)-6-methyl-3-(tetrahydro-2H-pyran-4-yl)imidazo[1,5-a]pyrazin-8(7H)-one]"
-22,18,27,52,,,,,,,"Cc1cn2c(C3CCOCC3)ncc2c(=O)n1Cc1ccc(OC(F)(F)F)cc1 [Example 41, 6-methyl-3-(tetrahydro-2H-pyran-4-yl)-7-(4-(trifluoromethoxy)benzyl)imidazo[1,5-a]pyrazin-8(7H)-one]"
15,155,,,50,55,,,,,"Cc1cn2c(C3CCOCC3)ncc2c(=O)n1Cc1ccc(OCC2CC2)cc1 [Example 42, 7-(4-(cyclopropylmethoxy)benzyl)-6-methyl-3-(tetrahydro-2H-pyran-4-yl)imidazo[1,5-a]pyrazin-8(7H)-one]"
6,32,105,9,,,,,,,"CCc1cn2c(C3CCOCC3)ncc2c(=O)n1Cc1ccccc1 [Example 43, 7-benzyl-6-ethyl-3-(tetrahydro-2H-pyran-4-yl)imidazo[1,5-a]pyrazin-8(7H)-one]"
18,5,40,16,,,,,,,"CCc1cn2c(C3CCOCC3)ncc2c(=O)n1Cc1ccc(OC)cc1 [Example 44, 6-ethyl-7-(4-methoxybenzyl)-3-(tetrahydro-2H-pyran-4-yl)imidazo[1,5-a]pyrazin-8(7H)-one]"
6,,,149,,,54,64,,,"Cc1cn2c(C3CCOCC3)ncc2c(=O)n1Cc1cccc(C#N)c1 [Example 45, 3-((6-methyl-8-oxo-3-(tetrahydro-2H-pyran-4-yl)imidazo[1,5-a]pyrazin-7(8H)-yl)methyl)benzonitrile]"
14,,809,,,9,58,,,,"Cc1cn2c(C3CCOCC3)ncc2c(=O)n1Cc1ccc(C#N)cc1 [Example 46, 4-((6-methyl-8-oxo-3-(tetrahydro-2H-pyran-4-yl)imidazo[1,5-a]pyrazin-7(8H)-yl)methyl)benzonitrile]"
10,388,,,0,10,,,,,"CC(=O)Nc1ccc(Cn2c(C)cn3c(C4CCOCC4)ncc3c2=O)cc1 [Example 47, N-(4-((6-methyl-8-oxo-3-(tetrahydro-2H-pyran-4-yl)imidazo[1,5-a]pyrazin-7(8H)-yl)methyl)phenyl)acetamide]"
1,,,173,,,60,44,,,"CCc1ccccc1Cn1c(C)cn2c(C3CCOCC3)ncc2c1=O [Example 49, 7-(2-ethylbenzyl)-6-methyl-3-(tetrahydro-2H-pyran-4-yl)imidazo[1,5-a]pyrazin-8(7H)-one]"
12,16,50,38,,,,,,,"Cc1cn2c(C3CCOCC3)ncc2c(=O)n1Cc1ccc2c(c1)OCO2 [Example 50, 7-(benzo[d][1,3]dioxol-5-ylmethyl)-6-methyl-3-(tetrahydro-2H-pyran-4-yl)imidazo[1,5-a]pyrazin-8(7H)-one]"
1,36,199,46,,,,,,,"COc1ccc(Cn2c(C)cn3c(C4CCOCC4)ncc3c2=O)cc1Cl [Example 51, 7-(3-chloro-4-methoxybenzyl)-6-methyl-3-(tetrahydro-2H-pyran-4-yl)imidazo[1,5-a]pyrazin-8(7H)-one]"
-3,388,,,0,10,,,,,"Cc1cn2c(C3CCOCC3)ncc2c(=O)n1Cc1ccc(N)cc1 [Example 52, 7-(4-aminobenzyl)-6-methyl-3-(tetrahydro-2H-pyran-4-yl)imidazo[1,5-a]pyrazin-8(7H)-one]"
-41,35,401,84,,,,,,,"Cc1cn2c(C3CCOCC3)ncc2c(=O)n1Cc1ccc(O)cc1 [Example 53, 7-(4-hydroxybenzyl)-6-methyl-3-(tetrahydro-2H-pyran-4-yl)imidazo[1,5-a]pyrazin-8(7H)-one]"
23,53,62,12,,,,,,,"CCc1cn2c(C3CCOCC3)ncc2c(=O)n1Cc1cccc(F)c1 [Example 54, 6-ethyl-7-(3-fluorobenzyl)-3-(tetrahydro-2H-pyran-4-yl)imidazo[1,5-a]pyrazin-8(7H)-one]"
7,21,65,43,,,,,,,"CCCc1ncc2c(=O)n(Cc3ccc(OC)cc3)c(C)cn12 [Example 56, 7-(4-methoxybenzyl)-6-methyl-3-propylimidazo[1,5-a]pyrazin-8(7H)-one]"
-5,26,45,84,,,,,,,"COc1ccc(Cn2c(C)cn3c(C4CCOCC4)ncc3c2=O)cn1 [Example 57, 7-((6-methoxypyridin-3-yl)methyl)-6-methyl-3-(tetrahydro-2H-pyran-4-yl)imidazo[1,5-a]pyrazin-8(7H)-one]"
36,1770,,,,,,,58,44,"Cc1cn2c(C3CCOCC3)ncc2c(=O)n1C [Example 58, 6,7-dimethyl-3-(tetrahydro-2H-pyran-4-yl)imidazo[1,5-a]pyrazin-8(7H)-one]"
